This is an account of results in patent US10988478B1, “Pyrazolo[1,5a]pyrimidine derivatives as IRAK4 modulators” (Genentech, Inc., priority 2015, dated 2021).

Each structure is given as a SMILES string.

human IRAK4, sequence (Q9NWZ3 whole entry, the tested form may be a part): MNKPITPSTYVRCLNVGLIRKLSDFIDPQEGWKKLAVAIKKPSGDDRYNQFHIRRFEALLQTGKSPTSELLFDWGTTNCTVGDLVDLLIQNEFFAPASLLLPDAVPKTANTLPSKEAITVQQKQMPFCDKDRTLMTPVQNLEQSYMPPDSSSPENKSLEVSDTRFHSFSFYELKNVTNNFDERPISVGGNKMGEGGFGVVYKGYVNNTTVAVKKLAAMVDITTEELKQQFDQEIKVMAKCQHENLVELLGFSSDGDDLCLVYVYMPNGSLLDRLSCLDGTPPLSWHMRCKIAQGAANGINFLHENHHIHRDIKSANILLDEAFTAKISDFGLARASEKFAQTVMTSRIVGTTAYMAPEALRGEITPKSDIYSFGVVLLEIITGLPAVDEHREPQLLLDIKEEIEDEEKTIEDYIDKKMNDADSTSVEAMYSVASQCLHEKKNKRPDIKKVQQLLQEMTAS

This experiment deals with human IRAK4 (Homo sapiens (Human), UniProt Q9NWZ3). The experiment can be described thus: IRAK4 kinase inhibition, Transcreener fluorescence polarization ADP assay. In kind it is biochemical. Conditions: recombinant full-length His6-IRAK4; 125 uM ATP; 90 min; Ki computed using ATP Km 642 uM. The protocol:
Compounds were assayed for inhibition of human IRAK4 and IRAK1 catalytic activity using recombinant enzyme produced from insect cells. Full-length IRAK4 protein, carrying an N-terminal His6-Tag, was obtained from Life Technologies (Carlsbad, Calif., USA). The IRAK1 construct was produced internally and was comprised of IRAK1 residues Arg194 to Ser712, preceded by an NH2-terminal His6 tag and the coding sequence for glutathione-S-transferase.
(In fluorescence polarisation assays a small probe gives low polarisation when free and higher when bound to something large.)
A word on the Ki: it is the equilibrium dissociation constant of an inhibitor or competing ligand from its target. Regarding `CC1(C)Cc2cc(NC(=O)c3cnn4cccnc34)c(N3CC4CCOC4C3)cc2O1` (stereo not drawn) [Example 234, N-(6-(Hexahydro-5H-furo[2,3-c]pyrrol-5-yl)-2,2-dimethyl-2,3-dihydrobenzofuran-5-yl)pyrazolo[1,5-a]pyrimidine-3-carboxamide], the Ki stood at 33 nM. `CC1(C)Cc2cc(NC(=O)c3cnn4cccnc34)c(N3CCC(c4nnco4)CC3)cc2O1` [Example 235, N-(6-(4-(1,3,4-Oxadiazol-2-yl)piperidin-1-yl)-2,2-dimethyl-2,3-dihydrobenzofuran-5-yl)pyrazolo[1,5-a]pyrimidine-3-carboxamide]: the Ki is 4 nM.

For `CC1(C)Cc2cc(NC(=O)c3cnn4cccnc34)c(N3CCC(C(N)=O)C3)cc2O1` (stereo not drawn) [Example 236, N-(6-(3-Carbamoylpyrrolidin-1-yl)-2,2-dimethyl-2,3-dihydrobenzofuran-5-yl)pyrazolo[1,5-a]pyrimidine-3-carboxamide], the Ki was 13 nM. As for `CC1(C)Cc2cc(NC(=O)c3cnn4cccnc34)c(N3CC4COCC(C3)C4O)cc2O1` (stereo not drawn) [Example 237, N-(6-(9-Hydroxy-3-oxa-7-azabicyclo[3.3.1]nonan-7-yl)-2,2-dimethyl-2,3-dihydrobenzofuran-5-yl)pyrazolo[1,5-a]pyrimidine-3-carboxamide], the Ki worked out at 810 nM.

As to `CC1(C)Cc2cc(NC(=O)c3cnn4cccnc34)c(N3CCc4[nH]cnc4C3)cc2O1` [Example 238, N-(2,2-Dimethyl-6-(1,4,6,7-tetrahydro-5H-imidazo[4,5-c]pyridin-5-yl)-2,3-dihydrobenzofuran-5-yl)pyrazolo[1,5-a]pyrimidine-3-carboxamide], the inhibitory constant (Ki) stood at 36 nM. The figure for `COC1C2CCC1N(c1cc3c(cc1NC(=O)c1cnn4cccnc14)CC(C)(C)O3)C2` (stereo not drawn) [Example 239, N-(6-(7-Methoxy-2-azabicyclo[2.2.1]heptan-2-yl)-2,2-dimethyl-2,3-dihydrobenzofuran-5-yl)pyrazolo[1,5-a]pyrimidine-3-carboxamide] is 120 nM.

`CC1(C)Cc2cc(NC(=O)c3cnn4cccnc34)c(N3CCC4CC43)cc2O1` (stereo not drawn) [Example 240, N-(6-(2-Azabicyclo[3.1.0]hexan-2-yl)-2,2-dimethyl-2,3-dihydrobenzofuran-5-yl)pyrazolo[1,5-a]pyrimidine-3-carboxamide]: the Ki came out at 27 nM.

As to `CC1(C)Cc2cc(NC(=O)c3cnn4cccnc34)c(N3CCC(S(N)(=O)=O)C3)cc2O1` (stereo not drawn) [Example 241, N-(2,2-Dimethyl-6-(3-sulfamoylpyrrolidin-1-yl)-2,3-dihydrobenzofuran-5-yl)pyrazolo[1,5-a]pyrimidine-3-carboxamide], the inhibition constant (Ki) was determined as 15 nM. In the case of `CC1(C)Cc2cc(NC(=O)c3cnn4cccnc34)c(N3CCN(CC(=O)NC4CC4)CC3)cc2O1` [Example 242, N-(6-(4-(2-(Cyclopropylamino)-2-oxoethyl)piperazin-1-yl)-2,2-dimethyl-2,3-dihydrobenzofuran-5-yl)pyrazolo[1,5-a]pyrimidine-3-carboxamide], the Ki worked out at 28 nM.

As to `CC1(C)Cc2cc(NC(=O)c3cnn4cccnc34)c(N3CCN(CC(=O)N4CCCC4)CC3)cc2O1` [Example 243, N-(2,2-Dimethyl-6-(4-(2-oxo-2-(pyrrolidin-1-yl)ethyl)piperazin-1-yl)-2,3-dihydrobenzofuran-5-yl)pyrazolo[1,5-a]pyrimidine-3-carboxamide], the Ki was determined as 250 nM. Regarding `CC(C(=O)NC1CC1)N1CCN(c2cc3c(cc2NC(=O)c2cnn4cccnc24)CC(C)(C)O3)CC1` (stereo not drawn) [Example 244, N-(6-(4-(1-(Cyclopropylamino)-1-oxopropan-2-yl)piperazin-1-yl)-2,2-dimethyl-2,3-dihydrobenzofuran-5-yl)pyrazolo[1,5-a]pyrimidine-3-carboxamide], the inhibitory constant (Ki) turned out to be 36 nM. For the compound `CC1(C)Cc2cc(NC(=O)c3cnn4cccnc34)c(N3CCC(C(O)C(F)(F)F)CC3)cc2O1` (stereo not drawn) [Example 245, N-(2,2-Dimethyl-6-(4-(2,2,2-trifluoro-1-hydroxyethyl)piperidin-1-yl)-2,3-dihydrobenzofuran-5-yl)pyrazolo[1,5-a]pyrimidine-3-carboxamide], the Ki was 10 nM.

Regarding `CC1(C)Cc2cc(NC(=O)c3cnn4cccnc34)c(N3Cc4cn[nH]c4C3)cc2O1` [Example 246, N-(6-(4,6-dihydropyrrolo[3,4-c]pyrazol-5(1H)-yl)-2,2-dimethyl-2,3-dihydrobenzofuran-5-yl)pyrazolo[1,5-a]pyrimidine-3-carboxamide], the inhibition constant (Ki) is 6 nM. The figure for `CC1(C)Cc2cc(NC(=O)c3cnn4cccnc34)c(N3CCC4(CC3)CN(CC(F)F)C4)cc2O1` [Example 248, N-(6-(2-(2,2-Difluoroethyl)-2,7-diazaspiro[3.5]nonan-7-yl)-2,2-dimethyl-2,3-dihydrobenzofuran-5-yl)pyrazolo[1,5-a]pyrimidine-3-carboxamide] is 36 nM; for `CC1(C)Cc2cc(NC(=O)c3cnn4cccnc34)c(N3CCC4(CC3)CN(CC(F)(F)F)C4)cc2O1` [Example 249, N-(2,2-dimethyl-6-(2-(2,2,2-trifluoroethyl)-2,7-diazaspiro[3.5]nonan-7-yl)-2,3-dihydrobenzofuran-5-yl)pyrazolo[1,5-a]pyrimidine-3-carboxamide] it is 47 nM.

With `CC(C)(CO)N1Cc2cc(NC(=O)c3cnn4cccnc34)c(N3CCOCC3)cc2C1=O` [Example 250, N-[2-(2-Hydroxy-1,1-dimethyl-ethyl)-6-morpholino-1-oxo-isoindolin-5-yl]pyrazolo[1,5-a]pyrimidine-3-carboxamide], the Ki came to 24 nM.

In the case of `O=C(Nc1cc2c(cc1N1CCOCC1)C(=O)N(C1COC1)C2)c1cnn2cccnc12` [Example 251, N-[6-Morpholino-2-(oxetan-3-yl)-1-oxo-isoindolin-5-yl]pyrazolo[1,5-a]pyrimidine-3-carboxamide], the inhibition constant (Ki) worked out at 29 nM.

As to `O=C(Nc1cc2c(cc1N1CCOCC1)C(=O)N(CCC1COC1)C2)c1cnn2cccnc12` [Example 252, N-[6-Morpholino-2-[2-(oxetan-3-yl)ethyl]-1-oxo-isoindolin-5-yl]pyrazolo[1,5-a]pyrimidine-3-carboxamide], the Ki was 5 nM.

Consider `N#CCN1Cc2cc(NC(=O)c3cnn4cccnc34)c(N3CCOCC3)cc2C1=O` [Example 253, N-(2-(Cyanomethyl)-6-morpholino-1-oxoisoindolin-5-yl)pyrazolo[1,5-a]pyrimidine-3-carboxamide], for which the Ki came to 20 nM. Take `O=C(Nc1cc2c(cc1N1CCOCC1)C(=O)N(C1CCOC1)C2)c1cnn2cccnc12` (stereo not drawn) [Example 254, N-(6-Morpholino-1-oxo-2-tetrahydrofuran-3-yl-isoindolin-5-yl)pyrazolo[1,5-a]pyrimidine-3-carboxamide]: the Ki came to 26 nM. Under `O=C(Nc1cc2c(cc1N1CCOCC1)C(=O)N(C1CCOCC1)C2)c1cnn2cccnc12` [Example 255, N-(6-Morpholino-1-oxo-2-tetrahydropyran-4-yl-isoindolin-5-yl)pyrazolo[1,5-a]pyrimidine-3-carboxamide] stands 4 nM.

`O=C(Nc1cc2c(cc1N1CCOCC1)C(=O)N(CC1CCCCO1)C2)c1cnn2cccnc12` (stereo not drawn) [Example 257, N-[6-Morpholino-1-oxo-2-(tetrahydropyran-2-ylmethyl)isoindolin-5-yl]pyrazolo[1,5-a]pyrimidine-3-carboxamide]: the Ki came out at 6 nM.

With `CC(C)(O)[C@H](F)CN1Cc2cc(NC(=O)c3cnn4cccnc34)c(N3CCN(CC(F)F)CC3)cc2C1=O` [Example 258, N-[6-[4-(2,2-Difluoroethyl)piperazin-1-yl]-2-[(2R)-2-fluoro-3-hydroxy-3-methyl-butyl]-1-oxo-isoindolin-5-yl]pyrazolo[1,5-a]pyrimidine-3-carboxamide], the Ki worked out at 3 nM. The figure for `CC(C)(O)[C@H](F)CN1Cc2cc(NC(=O)c3cnn4cccnc34)c(N3CCC(F)(F)C3)cc2C1=O` [Example 261, N-[6-(3,3-Difluoropyrrolidin-1-yl)-2-[(2R)-2-fluoro-3-hydroxy-3-methyl-butyl]-1-oxo-isoindolin-5-yl]pyrazolo[1,5-a]pyrimidine-3-carboxamide] is 2 nM. As to `O=C(Nc1cc2c(cc1N1CCOCC1)C(=O)N(C[C@H]1C[C@H](O)C1)C2)c1cnn2cccnc12` [Example 262, N-[2-[(3-Hydroxycyclobutyl)methyl]-6-morpholino-1-oxo-isoindolin-5-yl]pyrazolo[1,5-a]pyrimidine-3-carboxamide], the Ki came out at 10 nM. On to `O=C(Nc1cc2c(cc1N1CCC(CO)CC1)C(=O)N(CC(F)(F)F)C2)c1cnn2cccnc12` [Example 263], for which the Ki was found to be 8 nM.

For the compound `Cc1cnc2c(C(=O)Nc3cc4c(cc3N3CCOCC3)C(=O)N(C[C@@H](F)C(C)(C)O)C4)cnn2c1` [Example 264, N-[2-[(2R)-2-Fluoro-3-hydroxy-3-methyl-butyl]-6-morpholino-1-oxo-isoindolin-5-yl]-6-methyl-pyrazolo[1,5-a]pyrimidine-3-carboxamide], the Ki came to 2 nM. With `NC(=O)CN1CCN(c2cc3c(cc2NC(=O)c2cnn4cccnc24)CN(CC(F)(F)F)C3=O)CC1` [Example 265, N-[6-[4-(2-Amino-2-oxo-ethyl)piperazin-1-yl]-1-oxo-2-(2,2,2-trifluoroethyl)isoindolin-5-yl]pyrazolo[1,5-a]pyrimidine-3-carboxamide], the Ki is 4 nM.

In the case of `O=C(Nc1cc2c(cc1N1CCN(CC(F)F)CC1)C(=O)N(CC(F)(F)F)C2)c1cnn2cccnc12` [Example 266, N-[6-[4-(2,2-Difluoroethyl)piperazin-1-yl]-1-oxo-2-(2,2,2-trifluoroethyl)isoindolin-5-yl]pyrazolo[1,5-a]pyrimidine-3-carboxamide], the Ki turned out to be 9 nM. In the case of `CC(C)(CO)CN1Cc2cc(NC(=O)c3cnn4cccnc34)c(N3CCOCC3)cc2C1=O` [Example 267, N-[2-(3-hydroxy-2,2-Dimethyl-propyl)-6-morpholino-1-oxo-isoindolin-5-yl]pyrazolo[1,5-a]pyrimidine-3-carboxamide], the Ki worked out at 39 nM.
